According to the RepoRT retention time repository:

Assay: Waters SunFire C18, 150 × 2.1 mm, 3.5 µm, 25 °C, 0.25 mL/min, estimated dead time 1.3 min; A: water + 0.1% formic acid; B: methanol; gradient (min/%B) 0/5 30/100
Details: stereoisomer not certain

`COC(=O)C1CC23CCCN4CCC5(c6cc(Cc7ccc8c(c7)C79CCN%10CCCC%11(CCC7(C(C(=O)OC)C%11)N8C)C%109)ccc6N(C)C15CC2)C43` (centres undefined) and `COC(=O)C1CC23CCCN4CCC5(c6ccccc6N(C(=O)OC)C15CC2)C43` (centres undefined) are within 1.5-fold of each other in LC retention time: 19.5 min for the first, 26.9 min for the second.

`CC=C1CN2CCC3(O)c4ccccc4N4C=C(C(=O)OC)C1CC2C43O` (centres undefined) and `CC=C1CN2CCC34C(=C(C(=O)OC)C1CC23)Nc1ccccc14` (centres undefined) are within 1.5-fold of each other in LC retention time: 16.5 min for the first, 11.1 min for the second.

`COC(=O)C1=C2Nc3ccccc3C23CCN2CC4(CC5CC67CCOC6CCN6CCC8(c9cccc(OC)c9N(C4)C58O)C67)C4OCCC4(C1)C23` (centres undefined) and `CCC12CC(C(=O)OC)=C3Nc4ccccc4C34CCN(C(c3ccc5c(c3)C3CCN6CC7OC7C7(CC)CCC3(N5)C67)C3OC31)C42` (centres undefined) are within 1.5-fold of each other in LC retention time: 23.3 min for the first, 16 min for the second.

`CC=C1C[N+]2(C)CCc3c4n(c5ccccc35)C(CO)C1CC42` (centres undefined) and `CC=C1C[N+]2(C)C3CC1C(C(=O)[O-])C2Cc1c3[nH]c2ccccc12` (centres undefined) are within 1.5-fold of each other in LC retention time: 14.8 min for the first, 15.6 min for the second.

`O=c1c2cncc3c2c(c2n1CCc1c-2[nH]c2ccccc12)C=C3` and `C=Cc1cncc2c(=O)n3c(cc12)-c1[nH]c2ccccc2c1CC3` are within 1.5-fold of each other in LC retention time: 22.1 min for the first, 18.3 min for the second.

`CC=C1C[n+]2ccc3c([nH]c4ccccc43)c2CC1CCO` (centres undefined) and `C=CC1CN2CCc3c([nH]c4ccccc34)C2CC1CCO` (centres undefined) are within 1.5-fold of each other in LC retention time: 16.7 min for the first, 13.7 min for the second.

`CCC1CN2CCc3c([nH]c4ccccc34)C2CC1C(=COC)C(=O)OC` (centres undefined) and `CCC1CC2CN3CCc4c([nH]c5ccccc45)C(C(=O)OC)(C2)C13` (centres undefined) are within 1.5-fold of each other in LC retention time: 16.8 min for the first, 16.9 min for the second.

`CCC1CN2CCc3c([nH]c4ccccc34)C2CC1CC1c2[nH]c3ccccc3c2CCN1C` (centres undefined) and `CCC1CN2CCc3c([nH]c4ccccc34)C2CC1CC1NCCc2c1[nH]c1ccccc21` (centres undefined) are within 1.5-fold of each other in LC retention time: 14.7 min for the first, 16.6 min for the second.

`C=CC(CO)C1CC[N+]2(C)CCc3c([nH]c4ccccc34)C2C1` (centres undefined) and `CC=C1C[N+]2(C)CCc3c([nH]c4ccccc34)C2CC1Cc1nccc2c1[nH]c1ccccc12` (centres undefined) are within 1.5-fold of each other in LC retention time: 14.2 min for the first, 15.5 min for the second.

`CC=C1C[N+]2([O-])CCC34Cc5cc6c(cc5OC35C2CC1C(C(=O)OC)N5c1ccccc14)NC12CCC3(CC)CCC[N+]1(CCC62O)C3` (centres undefined) and `CC=C1CN2CCC34C(=O)c5cc6c(cc5OC35C2CC1C(C(=O)OC)N5c1ccccc14)NC12CCC3(CC)CCC[N+]1(CCC62O)C3` (centres undefined) are within 1.5-fold of each other in LC retention time: 13.4 min for the first, 13.8 min for the second.

`C=CC1CN2CCC1CC2C(O)c1ccnc2ccc(OC)cc12` (centres undefined) and `COc1ccc2[nH]c3c(c2c1)CCN1CC2CC3C1C(C(C)O)C2` (centres undefined) are within 1.5-fold of each other in LC retention time: 13.7 min for the first, 14.9 min for the second.

`CC=C1CNC2Cc3c([nH]c4ccccc34)C(=O)CC1C2C(=O)OC` (centres undefined) and `CC=C1CN(C)C2Cc3c([nH]c4ccccc34)C(=O)CC1C2C(=O)OC` (centres undefined) are within 1.5-fold of each other in LC retention time: 13.4 min for the first, 15.3 min for the second.

`CCC12CCCN(CCc3c([nH]c4ccccc34)CC1)C2` (centres undefined) and `CCC12CCCN3CCc4c(n(c5ccccc45)C(O)(C(=O)OC)C1)C32` (centres undefined) are within 1.5-fold of each other in LC retention time: 15.1 min for the first, 20 min for the second.

`CCC1CN2CCC34c5ccccc5NC3C(CO)C1CC24` (centres undefined) and `CCC1C2CCN3CCC4(C(=C2C(=O)OC)Nc2ccccc24)C13` (centres undefined) are within 1.5-fold of each other in LC retention time: 10.4 min for the first, 13.7 min for the second.

`CC=C1CN2C3CC1C(CO)(C(=O)OC)C2Cc1c3n(C)c2ccccc12` (centres undefined) and `CC=C1CN2C3CC1C1(C(=O)OC)C2CC2(c4ccccc4N(C)C32)C1O` (centres undefined) are within 1.5-fold of each other in LC retention time: 14.2 min for the first, 12 min for the second.

First: C=CC1CN2CCC3(C(=O)Nc4c3ccc(O)c4C3CCCN3C)C2CC1CC1c2[nH]c3ccccc3c2CCN1C (centres undefined)
Second: CC=C1CN2C3CC1C(C1OCC4C5CC6N(CCC67c6ccccc6N1C47)CC5CC)C2Cc1c3[nH]c2ccccc12 (centres undefined)
The LC retention time of the first is 1.6-fold lower: 8.71 min for the first, 13.8 min for the second.

`CN1CCC23C(=O)CC4C(=CCOC5CC(=O)N(c6c(O)cccc62)C3C54)C1` (centres undefined) and `COc1cc2c(cc1OC)C13CCN(C)CC4=CCOC5CC(=O)N2C1C5C4CC3=O` (centres undefined) are within 1.5-fold of each other in LC retention time: 13.4 min for the first, 13.1 min for the second.

`CCC12CCCN3C(=O)C=C(c4ccccc4NC(=O)CC1)C32O` (centres undefined) and `COC(=O)C1CC23CCCN4C(=O)CC5(c6ccccc6N(C)C15CC2)C43` (centres undefined) are within 1.5-fold of each other in LC retention time: 18.1 min for the first, 15.1 min for the second.

`CC=C1CN(C)C2Cc3c([nH]c4ccccc34)C(c3ccc4c(CCN)c[nH]c4c3)CC1C2C(=O)OC` (centres undefined) and `CC=C1CN2C3CC1C(C(=O)OC)C2Cc1c3[nH]c2ccccc12` (centres undefined) are within 1.5-fold of each other in LC retention time: 12.6 min for the first, 16.2 min for the second.

`CC=C1CN2C(C3C(=O)N4c5ccccc5C56CCN7CC8=CCOC3C(C8CC75)C46)CC34c5ccccc5N5C(=O)C=CC(C1CC23)C54` (centres undefined) and `COc1ccc2c(c1)N1C(=O)CC3OCC=C4CN5CCC26C5CC4C3C16` (centres undefined) are within 1.5-fold of each other in LC retention time: 16.3 min for the first, 16.8 min for the second.

`CC=C1CN2C3CC1C1(C(=O)OC)C2CC2(c4ccccc4N(C)C32)C1OC(=O)C=Cc1cc(OC)c(OC)c(OC)c1` (centres undefined) and `CC=C1CN2C3CC45c6ccccc6N(C)C4C2CC1C3C5OC(=O)c1cc(OC)c(OC)c(OC)c1` (centres undefined) are within 1.5-fold of each other in LC retention time: 17.8 min for the first, 22.6 min for the second.

`c1ccc2c(c1)NC13CCC4(CCCN5CCC21C54)CC3` (centres undefined) and `COC(=O)C1CC23CCC[N+]4([O-])CCC5(c6ccccc6N(C(=O)OC)C15CC2)C34` (centres undefined) are within 1.5-fold of each other in LC retention time: 19.5 min for the first, 17.2 min for the second.

`CCC1CN2CCc3c([nH]c4cc(OC)c(OC)cc34)C2CC1CCO` (centres undefined) and `COC(=O)C1=COC(C)C2CN3CCc4c([nH]c5cc(OC)c(OC)cc45)C3CC12` (centres undefined) are within 1.5-fold of each other in LC retention time: 16.6 min for the first, 17 min for the second.

`CC1OCC2C3CC(=O)C4(CCN(C)CC13)c1ccccc1NC24` (centres undefined) and `CC1OCC2C3CC4(O)N(CCC45c4ccccc4N(C(=O)CO)C25)CC13` (centres undefined) are within 1.5-fold of each other in LC retention time: 15.9 min for the first, 11.8 min for the second.

`CCC1CC2CC3c4[nH]c5cc(OC)ccc5c4CCN(C2)C13` (centres undefined) and `CCC1CC2CC3c4[nH]c5ccc(OC)cc5c4CCN(C2)C13` (centres undefined) are within 1.5-fold of each other in LC retention time: 18.6 min for the first, 13.6 min for the second.

`CCC1NC2CC3(C(=O)N(OC)c4cc(OC)ccc43)C3CC1C2CO3` (centres undefined) and `COC(=O)C1=COC(C)C2CN3CCC4(C(=O)Nc5cc(OC)c(OC)cc54)C3CC12` (centres undefined) are within 1.5-fold of each other in LC retention time: 16.3 min for the first, 15.8 min for the second.

`CCC1=C(CC(=O)OC)C(O)(c2nccc3c2[nH]c2ccccc23)OC1=O` (centres undefined) and `CCC1(O)C(=O)OCc2c1cc1n(c2=O)Cc2cc3ccccc3nc2-1` (centres undefined) are within 1.5-fold of each other in LC retention time: 23.2 min for the first, 27.2 min for the second.

`CC=C1CN2C3CC1C1(C(=O)OC)C2CC2(c4ccccc4NC32)C1O` (centres undefined) and `CC=C1CN2CCC34c5cc(O)ccc5N(C)C35OCC4(C(=O)OC)C1CC25` (centres undefined) are within 1.5-fold of each other in LC retention time: 14.9 min for the first, 14.3 min for the second.

Compared with `CC=C1CN2C3CC1C(C=O)C2Cc1c3[nH]c2ccccc12` (centres undefined), `C=C1c2[nH]c3ccccc3c2CN2CCC1C(=CC)C2` (centres undefined) is 1.6-fold lower in LC retention time: 14.7 min for the first, 9.26 min for the second.

`CC=C1CN2CCc3c([nH]c4ccc(O)cc34)C2CC1CCO` (centres undefined) and `C=CC1C(OC2OC(CO)C(O)C(O)C2O)OC=C(C(=O)OC)C1CC1NCCc2c1[nH]c1ccccc21` (centres undefined) are within 1.5-fold of each other in LC retention time: 11.7 min for the first, 17 min for the second.

Compared with `C=CC12C=CCN3CCC4(c5ccccc5NC(=O)C4C1)C32` (centres undefined), `COC(=O)C1CC23C=CC(=O)N2CCC2(C(=O)OC)c4ccccc4N(C(=O)OC)C12CC3` (centres undefined) is 2.1-fold higher in LC retention time: 11.7 min for the first, 25.1 min for the second.

`CC=C1CN2CCC34CN5c6c(cccc6C36C2CC1C(C(=O)OC)N6c1ccccc14)C12CCN3CCCC4(CCC51C4C)C32` (centres undefined) and `C=CC1C(OC2OC(CO)C(O)C(O)C2O)OC2OC3CNC4CC1C2(C(=O)OC)C41Nc2ccccc2C31` (centres undefined) are within 1.5-fold of each other in LC retention time: 15 min for the first, 10.3 min for the second.
